pIC50: −log10 of the molar value.
System: KMS.12.BM cells
Experiment: KMS.12.BM Cell Viability Assay (Example B1)
Type: cell-based, human
Conditions: Homo sapiens, 72 h, 3 days, Cell Titer-GLO, read-out: KMS cellular IC50
Procedure, shortened: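 KMS.12.BM human myeloma cells, 5000 cells/well in RPMI with 10% FBS, exposed to a compound concentration range for 3 days. Viable cells measured by ATP-based Cell Titer-GLO luminescence after 10 min at room temperature.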

Row | Compound | pIC50
1 | Cc1noc(C)c1-c1ccc2nc(N3CCC(C#N)CC3)n3c2c1OC[C@@H]3c1ccccn1 [Example 175, 1-[(4S)-7-(3,5-dimethylisoxazol-4-yl)-4-pyridin-2-yl-4,5-dihydroimidazo[1,5,4-de][1,4]benzoxazin-2-yl]piperidine-4-carbonitrile] | > 6.00
2 | Cc1noc(C)c1-c1ccc2nc(N3CCC(CO)CC3)n3c2c1OC[C@@H]3c1ccccn1 [Example 176, {1-[(4S)-7-(3,5-dimethylisoxazol-4-yl)-4-pyridin-2-yl-4,5-dihydroimidazo[1,5,4-de][1,4]benzoxazin-2-yl]piperidin-4-yl}methanol] | > 6.00
3 | Cc1noc(C)c1-c1ccc2nc(N3CCN(CCO)CC3)n3c2c1OC[C@@H]3c1ccccn1 [Example 177, 2-{4-[(4S)-7-(3,5-dimethylisoxazol-4-yl)-4-pyridin-2-yl-4,5-dihydroimidazo[1,5,4-de][1,4]benzoxazin-2-yl]piperazin-1-yl}ethanol] | > 6.00
4 | Cc1noc(C)c1-c1ccc2nc(N3CCN(c4ccccc4)CC3)n3c2c1OC[C@@H]3c1ccccn1 [Example 178, (4S)-7-(3,5-dimethylisoxazol-4-yl)-2-(4-phenylpiperazin-1-yl)-4-pyridin-2-yl-4,5-dihydroimidazo[1,5,4-de][1,4]benzoxazine] | > 6.00
5 | Cc1noc(C)c1-c1ccc2nc(N3CCN(Cc4ccccc4)CC3)n3c2c1OC[C@@H]3c1ccccn1 [Example 179, (4S)-2-(4-benzylpiperazin-1-yl)-7-(3,5-dimethylisoxazol-4-yl)-4-pyridin-2-yl-4,5-dihydroimidazo[1,5,4-de][1,4]benzoxazine] | > 6.00
6 | Cc1noc(C)c1-c1ccc2nc(N3CC[C@@H](N(C)C)C3)n3c2c1OC[C@@H]3c1ccccn1 [Example 180A, (3R)-1-[(4S)-7-(3,5-dimethylisoxazol-4-yl)-4-pyridin-2-yl-4,5-dihydroimidazo[1,5,4-de][1,4]benzoxazin-2-yl]-N,N-dimethylpyrrolidin-3-amine] | > 6.00
7 | Cc1noc(C)c1-c1ccc2nc(N3CC[C@H](N(C)C)C3)n3c2c1OC[C@@H]3c1ccccn1 [Example 180B, (3S)-1-[(4S)-7-(3,5-dimethylisoxazol-4-yl)-4-pyridin-2-yl-4,5-dihydroimidazo[1,5,4-de][1,4]benzoxazin-2-yl]-N,N-dimethylpyrrolidin-3-amine] | > 6.00
8 | CN[C@@H]1CCN(c2nc3ccc(-c4c(C)noc4C)c4c3n2[C@@H](c2ccccn2)CO4)C1 [Example 181A, (3R)-1-[(4S)-7-(3,5-dimethylisoxazol-4-yl)-4-pyridin-2-yl-4,5-dihydroimidazo[1,5,4-de][1,4]benzoxazin-2-yl]-N-methylpyrrolidin-3-amine] | > 6.00
9 | CN[C@H]1CCN(c2nc3ccc(-c4c(C)noc4C)c4c3n2[C@@H](c2ccccn2)CO4)C1 [Example 181B, (3S)-1-[(4S)-7-(3,5-dimethylisoxazol-4-yl)-4-pyridin-2-yl-4,5-dihydroimidazo[1,5,4-de][1,4]benzoxazin-2-yl]-N-methylpyrrolidin-3-amine] | > 6.00
10 | Cc1noc(C)c1-c1ccc2nc(N3CC[C@@H](NC(=O)OC(C)(C)C)C3)n3c2c1OC[C@@H]3c1ccccn1 [Example 182A, tert-butyl {(3R)-1-[(4S)-7-(3,5-dimethylisoxazol-4-yl)-4-pyridin-2-yl-4,5-dihydroimidazo[1,5,4-de][1,4]benzoxazin-2-yl]pyrrolidin-3-yl}carbamate] | > 6.00
11 | Cc1noc(C)c1-c1ccc2nc(N3CC[C@H](NC(=O)OC(C)(C)C)C3)n3c2c1OC[C@@H]3c1ccccn1 [Example 182B, tert-butyl {(3S)-1-[(4S)-7-(3,5-dimethylisoxazol-4-yl)-4-pyridin-2-yl-4,5-dihydroimidazo[1,5,4-de][1,4]benzoxazin-2-yl]pyrrolidin-3-yl}carbamate] | > 6.00
12 | Cc1noc(C)c1-c1ccc2nc(N3CCN(CC4CC4)CC3)n3c2c1OC[C@@H]3c1ccccn1 [Example 183, (4S)-2-[4-(cyclopropylmethyl)piperazin-1-yl]-7-(3,5-dimethylisoxazol-4-yl)-4-pyridin-2-yl-4,5-dihydroimidazo[1,5,4-de][1,4]benzoxazine] | > 6.00
13 | COCCN1CCN(c2nc3ccc(-c4c(C)noc4C)c4c3n2[C@@H](c2ccccn2)CO4)CC1 [Example 184, (4S)-7-(3,5-dimethylisoxazol-4-yl)-2-[4-(2-methoxyethyl)piperazin-1-yl]-4-pyridin-2-yl-4,5-dihydroimidazo[1,5,4-de][1,4]benzoxazine] | > 6.00
14 | CNc1nc2ccc(-c3c(C)noc3C)c3c2n1C(c1ccccn1)CO3 (centres unmarked) [Example 186, 7-(3,5-dimethylisoxazol-4-yl)-N-methyl-4-pyridin-2-yl-4,5-dihydroimidazo[1,5,4-de][1,4]benzoxazin-2-amine] | > 6.00
15 | Cc1noc(C)c1-c1ccc2nc(N(C)C)n3c2c1OCC3c1ccccn1 (centres unmarked) [Example 187, 7-(3,5-dimethylisoxazol-4-yl)-N,N-dimethyl-4-pyridin-2-yl-4,5-dihydroimidazo[1,5,4-de][1,4]benzoxazin-2-amine] | > 6.00
16 | Cc1noc(C)c1-c1ccc2nc(N3CCC(C(N)=O)CC3)n3c2c1OC[C@@H]3c1ccccn1 [Example 188, 1-[(4S)-7-(3,5-dimethylisoxazol-4-yl)-4-pyridin-2-yl-4,5-dihydroimidazo[1,5,4-de][1,4]benzoxazin-2-yl]piperidine-4-carboxamide] | > 6.00
17 | CNC(=O)C1CCN(c2nc3ccc(-c4c(C)noc4C)c4c3n2[C@@H](c2ccccn2)CO4)CC1 [Example 189, 1-[(4S)-7-(3,5-dimethylisoxazol-4-yl)-4-pyridin-2-yl-4,5-dihydroimidazo[1,5,4-de][1,4]benzoxazin-2-yl]-N-methylpiperidine-4-carboxamide] | > 6.00
18 | CC(=O)NC1CCN(c2nc3ccc(-c4c(C)noc4C)c4c3n2[C@@H](c2ccccn2)CO4)CC1 [Example 190, N-{1-[(4S)-7-(3,5-dimethylisoxazol-4-yl)-4-pyridin-2-yl-4,5-dihydroimidazo[1,5,4-de][1,4]benzoxazin-2-yl]piperidin-4-yl}acetamide] | > 6.00
19 | Cc1noc(C)c1-c1ccc2nc(N3CCN(CC(N)=O)CC3)n3c2c1OC[C@@H]3c1ccccn1 [Example 191, 2-{4-[(4S)-7-(3,5-dimethylisoxazol-4-yl)-4-pyridin-2-yl-4,5-dihydroimidazo[1,5,4-de][1,4]benzoxazin-2-yl]piperazin-1-yl}acetamide] | > 6.00
20 | CCN1CCN(c2nc3ccc(-c4c(C)noc4C)c4c3n2[C@@H](c2ccccn2)CO4)CC1 [Example 192, (4S)-7-(3,5-dimethylisoxazol-4-yl)-2-(4-ethylpiperazin-1-yl)-4-pyridin-2-yl-4,5-dihydroimidazo[1,5,4-de][1,4]benzoxazine] | > 6.00
21 | Cc1noc(C)c1-c1ccc2nc(N3CCN4CCC[C@H]4C3)n3c2c1OC[C@@H]3c1ccccn1 [Example 193A, (4S)-7-(3,5-dimethylisoxazol-4-yl)-2-[(8aS)-hexahydropyrrolo[1,2-a]pyrazin-2(1H)-yl]-4-pyridin-2-yl-4,5-dihydroimidazo[1,5,4-de][1,4]benzoxazine] | > 6.00
22 | Cc1noc(C)c1-c1ccc2nc(N3CCN4CCC[C@@H]4C3)n3c2c1OC[C@@H]3c1ccccn1 [Example 193B, (4S)-7-(3,5-dimethylisoxazol-4-yl)-2-[(8aR)-hexahydropyrrolo[1,2-a]pyrazin-2(1H)-yl]-4-pyridin-2-yl-4,5-dihydroimidazo[1,5,4-de][1,4]benzoxazine] | > 6.00
23 | Cc1noc(C)c1-c1ccc2nc(N3CCC(C)(O)CC3)n3c2c1OC[C@@H]3c1ccccn1 [Example 194, 1-[(4S)-7-(3,5-dimethylisoxazol-4-yl)-4-pyridin-2-yl-4,5-dihydroimidazo[1,5,4-de][1,4]benzoxazin-2-yl]-4-methylpiperidin-4-ol] | > 6.00
24 | Cc1noc(C)c1-c1ccc2nc(N3CCNC(=O)C3C)n3c2c1OC[C@@H]3c1ccccn1 (stereo partly drawn) [Example 195, 4-[(4S)-7-(3,5-dimethylisoxazol-4-yl)-4-pyridin-2-yl-4,5-dihydroimidazo[1,5,4-de][1,4]benzoxazin-2-yl]-3-methylpiperazin-2-one] | > 6.00
25 | Cc1noc(C)c1-c1ccc2nc(N3CC(NC(=O)OC(C)(C)C)C3)n3c2c1OC[C@@H]3c1ccccn1 [Example 196, tert-butyl {1-[(4S)-7-(3,5-dimethylisoxazol-4-yl)-4-pyridin-2-yl-4,5-dihydroimidazo[1,5,4-de][1,4]benzoxazin-2-yl]azetidin-3-yl}carbamate] | > 6.00
26 | Cc1noc(C)c1-c1ccc2nc(N3CCCN(C(=O)OC(C)(C)C)CC3)n3c2c1OC[C@@H]3c1ccccn1 [Example 197, tert-butyl 4-[(4S)-7-(3,5-dimethylisoxazol-4-yl)-4-pyridin-2-yl-4,5-dihydroimidazo[1,5,4-de][1,4]benzoxazin-2-yl]-1,4-diazepane-1-carboxylate] | > 6.00
27 | CC(=O)N[C@@H]1CCN(c2nc3ccc(-c4c(C)noc4C)c4c3n2[C@@H](c2ccccn2)CO4)C1 [Example 201A, N-{(3R)-1-[(4S)-7-(3,5-dimethylisoxazol-4-yl)-4-pyridin-2-yl-4,5-dihydroimidazo[1,5,4-de][1,4]benzoxazin-2-yl]pyrrolidin-3-yl}acetamide] | > 6.00
28 | CC(=O)N[C@H]1CCN(c2nc3ccc(-c4c(C)noc4C)c4c3n2[C@@H](c2ccccn2)CO4)C1 [Example 201B, N-{(3S)-1-[(4S)-7-(3,5-dimethylisoxazol-4-yl)-4-pyridin-2-yl-4,5-dihydroimidazo[1,5,4-de][1,4]benzoxazin-2-yl]pyrrolidin-3-yl}acetamide] | > 6.00

Same assay, conditions: Homo sapiens, KMS-12-BM, 72 h, 3 days, Cell Titer-GLO, read-out: KMS cellular IC50

Row | Compound | pIC50
29 | Cc1noc(C)c1-c1ccc2nc(N(C)CCO)n3c2c1OCC3c1ccccn1 (centres unmarked) [Example 185, 2-[[7-(3,5-dimethylisoxazol-4-yl)-4-pyridin-2-yl-4,5-dihydroimidazo[1,5,4-de][1,4]benzoxazin-2-yl](methyl)amino]ethanol] | > 6.00

Reference: US10464947B2 (Incyte Corporation, priority 2013, dated 2019)
